Experimental data published in the NIST ThermoML archive (doi:10.1021/acs.jced.7b00106).

Details: Hot wire method

FC(F)(F)/C=C/Cl [(E)-1-chloro-3,3,3-trifluoroprop-1-ene]
Details | thermal conductivity [W/m/K]
402.34 K, 675 kPa, Fluid (supercritical or subcritical phases) | 0.01919
402.35 K, 18638 kPa, Liquid | 0.06815
402.35 K, 18644 kPa, Liquid | 0.06814
402.36 K, 4694 kPa, Liquid | 0.05768
402.36 K, 4699 kPa, Liquid | 0.05769
402.37 K, 9102 kPa, Liquid | 0.06154
402.37 K, 9105 kPa, Liquid | 0.06157
402.37 K, 33596 kPa, Liquid | 0.07616
402.38 K, 1202 kPa, Fluid (supercritical or subcritical phases) | 0.01949
402.38 K, 1203 kPa, Fluid (supercritical or subcritical phases) | 0.0195
402.38 K, 1623 kPa, Fluid (supercritical or subcritical phases) | 0.02057
402.38 K, 1624 kPa, Fluid (supercritical or subcritical phases) | 0.02063
402.38 K, 33572 kPa, Liquid | 0.0761
402.41 K, 3571 kPa, Liquid | 0.05649
402.41 K, 3575 kPa, Liquid | 0.05649
402.42 K, 1105 kPa, Fluid (supercritical or subcritical phases) | 0.01939
402.43 K, 1105 kPa, Fluid (supercritical or subcritical phases) | 0.01943
402.43 K, 7089 kPa, Liquid | 0.05988
402.44 K, 2633 kPa, Liquid | 0.05536
402.44 K, 2641 kPa, Liquid | 0.05542
402.44 K, 7097 kPa, Liquid | 0.05991
402.44 K, 15789 kPa, Liquid | 0.06632
402.44 K, 15790 kPa, Liquid | 0.06635
402.44 K, 24987 kPa, Liquid | 0.07171
402.44 K, 24992 kPa, Liquid | 0.07169
402.46 K, 1000 kPa, Fluid (supercritical or subcritical phases) | 0.01927
402.47 K, 1001 kPa, Fluid (supercritical or subcritical phases) | 0.01932
402.47 K, 1515 kPa, Fluid (supercritical or subcritical phases) | 0.02021
402.47 K, 1844 kPa, Liquid | 0.0544
402.47 K, 1854 kPa, Liquid | 0.05447
402.48 K, 1515 kPa, Fluid (supercritical or subcritical phases) | 0.02026
402.5 K, 848 kPa, Fluid (supercritical or subcritical phases) | 0.01923
402.5 K, 13367 kPa, Liquid | 0.06472
402.5 K, 13371 kPa, Liquid | 0.0647
402.51 K, 846 kPa, Fluid (supercritical or subcritical phases) | 0.01926
402.52 K, 1406 kPa, Fluid (supercritical or subcritical phases) | 0.01993
402.52 K, 1407 kPa, Fluid (supercritical or subcritical phases) | 0.01994
402.53 K, 21658 kPa, Liquid | 0.06987
402.54 K, 21643 kPa, Liquid | 0.06986
402.56 K, 28722 kPa, Liquid | 0.07362
402.57 K, 5983 kPa, Liquid | 0.05888
402.57 K, 5985 kPa, Liquid | 0.05888
402.57 K, 11101 kPa, Liquid | 0.06313
402.57 K, 28741 kPa, Liquid | 0.07367
402.58 K, 1306 kPa, Fluid (supercritical or subcritical phases) | 0.01976
402.58 K, 1307 kPa, Fluid (supercritical or subcritical phases) | 0.01973
402.58 K, 11088 kPa, Liquid | 0.06313
402.6 K, 18623 kPa, Liquid | 0.06809
402.61 K, 676 kPa, Fluid (supercritical or subcritical phases) | 0.01925
402.61 K, 4688 kPa, Liquid | 0.05758
402.61 K, 18624 kPa, Liquid | 0.06809
402.61 K, 33585 kPa, Liquid | 0.07607
402.62 K, 4693 kPa, Liquid | 0.05763
402.62 K, 33568 kPa, Liquid | 0.07592
402.63 K, 1203 kPa, Fluid (supercritical or subcritical phases) | 0.01956
402.63 K, 9088 kPa, Liquid | 0.06152
402.63 K, 9104 kPa, Liquid | 0.06148
402.65 K, 1203 kPa, Fluid (supercritical or subcritical phases) | 0.01959
402.66 K, 3574 kPa, Liquid | 0.05645
402.66 K, 3575 kPa, Liquid | 0.05645
402.69 K, 1104 kPa, Fluid (supercritical or subcritical phases) | 0.01945
402.69 K, 1106 kPa, Fluid (supercritical or subcritical phases) | 0.01948
402.69 K, 7089 kPa, Liquid | 0.05985
402.69 K, 15783 kPa, Liquid | 0.06633
402.69 K, 15792 kPa, Liquid | 0.06633
402.69 K, 24993 kPa, Liquid | 0.07169
402.7 K, 2638 kPa, Liquid | 0.0554
402.7 K, 7091 kPa, Liquid | 0.0599
402.7 K, 25001 kPa, Liquid | 0.07172
402.71 K, 2639 kPa, Liquid | 0.05542
402.74 K, 1850 kPa, Liquid | 0.05446
402.75 K, 1000 kPa, Fluid (supercritical or subcritical phases) | 0.01939
402.75 K, 1852 kPa, Liquid | 0.05457
402.76 K, 13350 kPa, Liquid | 0.06467
402.76 K, 13371 kPa, Liquid | 0.06472
402.78 K, 848 kPa, Fluid (supercritical or subcritical phases) | 0.01932
402.79 K, 846 kPa, Fluid (supercritical or subcritical phases) | 0.01931
402.79 K, 21633 kPa, Liquid | 0.06986
402.8 K, 21636 kPa, Liquid | 0.06986
402.82 K, 28727 kPa, Liquid | 0.07362
402.84 K, 5979 kPa, Liquid | 0.05886
402.84 K, 5987 kPa, Liquid | 0.05889
402.84 K, 11088 kPa, Liquid | 0.0631
402.84 K, 28733 kPa, Liquid | 0.07365
402.85 K, 11093 kPa, Liquid | 0.06312
402.86 K, 18624 kPa, Liquid | 0.06805
402.87 K, 18643 kPa, Liquid | 0.06812
402.89 K, 4691 kPa, Liquid | 0.05763
402.89 K, 4699 kPa, Liquid | 0.05767
402.9 K, 9108 kPa, Liquid | 0.06161
402.9 K, 33571 kPa, Liquid | 0.07603
402.91 K, 674 kPa, Fluid (supercritical or subcritical phases) | 0.01931
402.91 K, 9096 kPa, Liquid | 0.0616
402.91 K, 33586 kPa, Liquid | 0.07604
402.93 K, 3567 kPa, Liquid | 0.05645
402.94 K, 3574 kPa, Liquid | 0.05661
402.96 K, 15767 kPa, Liquid | 0.06628
402.96 K, 24990 kPa, Liquid | 0.07167
402.96 K, 25002 kPa, Liquid | 0.07171
402.97 K, 7096 kPa, Liquid | 0.05991
402.97 K, 15769 kPa, Liquid | 0.0663
402.98 K, 2633 kPa, Liquid | 0.05541
402.98 K, 7087 kPa, Liquid | 0.05989
402.99 K, 2643 kPa, Liquid | 0.05551
403 K, 1856 kPa, Liquid | 0.0546
403.01 K, 1850 kPa, Liquid | 0.05458
403.03 K, 21637 kPa, Liquid | 0.06984
403.04 K, 13347 kPa, Liquid | 0.06471
403.04 K, 13368 kPa, Liquid | 0.06474
403.07 K, 21655 kPa, Liquid | 0.06986
403.09 K, 28719 kPa, Liquid | 0.0736
403.1 K, 28719 kPa, Liquid | 0.07336
403.11 K, 5980 kPa, Liquid | 0.05886
403.12 K, 5983 kPa, Liquid | 0.05891
403.12 K, 11089 kPa, Liquid | 0.06307
403.12 K, 11091 kPa, Liquid | 0.06308
403.14 K, 18630 kPa, Liquid | 0.06809
403.15 K, 18626 kPa, Liquid | 0.06808
403.17 K, 4697 kPa, Liquid | 0.05766
403.18 K, 4698 kPa, Liquid | 0.05772
403.18 K, 9094 kPa, Liquid | 0.06153
403.19 K, 9095 kPa, Liquid | 0.06162
403.19 K, 33557 kPa, Liquid | 0.076
403.2 K, 33576 kPa, Liquid | 0.07601
403.23 K, 3569 kPa, Liquid | 0.0565
403.24 K, 3565 kPa, Liquid | 0.05654
403.24 K, 15779 kPa, Liquid | 0.06628
403.24 K, 25000 kPa, Liquid | 0.07167
403.25 K, 15789 kPa, Liquid | 0.06631
403.25 K, 24985 kPa, Liquid | 0.07165
403.27 K, 2641 kPa, Liquid | 0.05557
403.27 K, 7090 kPa, Liquid | 0.05988
403.27 K, 7094 kPa, Liquid | 0.05994
403.28 K, 2638 kPa, Liquid | 0.05558
403.3 K, 1852 kPa, Liquid | 0.05468
403.31 K, 1856 kPa, Liquid | 0.05476
403.32 K, 13355 kPa, Liquid | 0.06468
403.33 K, 13350 kPa, Liquid | 0.06467
403.33 K, 21631 kPa, Liquid | 0.0698
403.33 K, 21643 kPa, Liquid | 0.06984
403.37 K, 28710 kPa, Liquid | 0.07356
403.37 K, 28735 kPa, Liquid | 0.0736
403.39 K, 11081 kPa, Liquid | 0.06304
403.4 K, 5980 kPa, Liquid | 0.05891
403.4 K, 11095 kPa, Liquid | 0.06309
